Our source for the Ki and IC50 values is patent publication US9868748B2, “Thiazolopyrrolidine inhibitors of ROR- γ” (Vitae Pharmaceuticals, Inc., priority 2013, dated 2018).

Test [1] has as its target recombinant RORγ Ligand Binding Domain (LBD) protein (Homo sapiens (Human), UniProt P51449). The experiment in a line: Radio-Ligand RORγ Binding Assay (Assay 1). The settings on record: competition with 25-hydroxy [26,27-3H]-cholesterol, SPA, read-out: RORγ Binding Ki Range*. In short, it runs like this: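 Recombinant human RORγ ligand binding domain (6×His-GST fusion, 24 nM stock) competed with tritiated 25-hydroxycholesterol (8.6 nM stock) in HEPES buffer pH 7.4 with detergents and DTT; poly-Lys YSi SPA beads, room temperature, tritium SPA signal. Four-parameter IC50 from semi-log dilutions, normalised to DMSO and 10 μM T0901317, then Ki via KD equation.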

Test [2] addresses full-length RORγt in Jurkat cells (Homo sapiens (Human), UniProt P51449). In words: RORγt 5xRORE Assay in Jurkat Cells (Assay 2). The conditions noted are these: Nanoluc luciferase reporter, 16-18 hrs. The test is classed as cell-based. Put shortly: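 Inverse agonist activity was read as NanoGlo luminescence from conditioned medium after 16–18 h compound exposure (37 °C, 0.1% DMSO final). The cells were Jurkat, transiently transfected with RORγt and a secNluc reporter carrying five RORE repeats, seeded 80,000 per well in delipidated-serum RPMI.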
In general terms: Reporter assays use an easily measured gene product as a stand-in for the process of interest.

[3] abbreviates: Table 9, read-out: RORγt5X IC50 Range*.
Where [4] appears, read: Table 8, read-out: RORγt5X IC50 Range*.

Each structure is given as a SMILES string. Where two headings read alike, the source gives them in different places.

Chain of recombinant RORγ Ligand Binding Domain (LBD) protein (P51449 269-508): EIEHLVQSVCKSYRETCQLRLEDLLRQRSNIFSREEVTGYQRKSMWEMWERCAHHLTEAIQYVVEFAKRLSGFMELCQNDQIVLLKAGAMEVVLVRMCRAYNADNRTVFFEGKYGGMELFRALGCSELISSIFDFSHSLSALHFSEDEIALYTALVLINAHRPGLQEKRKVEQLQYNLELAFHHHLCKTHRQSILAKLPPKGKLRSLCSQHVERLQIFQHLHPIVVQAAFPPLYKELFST
Chain of full-length RORγt in Jurkat cells (P51449 other isoform, or with tags, fused parts or gaps): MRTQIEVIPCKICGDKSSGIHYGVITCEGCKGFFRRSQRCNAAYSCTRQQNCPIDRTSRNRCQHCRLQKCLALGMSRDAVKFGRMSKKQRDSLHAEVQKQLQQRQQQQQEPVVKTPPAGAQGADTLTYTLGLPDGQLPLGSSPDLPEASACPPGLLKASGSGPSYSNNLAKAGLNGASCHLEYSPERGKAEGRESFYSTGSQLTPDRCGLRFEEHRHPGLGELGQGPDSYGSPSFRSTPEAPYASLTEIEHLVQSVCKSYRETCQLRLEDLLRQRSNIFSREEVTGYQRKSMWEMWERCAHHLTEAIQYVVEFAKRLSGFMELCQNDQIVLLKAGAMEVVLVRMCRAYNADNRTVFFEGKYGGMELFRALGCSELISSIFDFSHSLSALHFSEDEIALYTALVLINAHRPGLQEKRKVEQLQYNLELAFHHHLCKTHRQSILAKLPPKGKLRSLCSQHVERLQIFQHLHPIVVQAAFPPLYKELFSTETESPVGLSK

As usually defined, the Ki is the equilibrium dissociation constant of an inhibitor or competing ligand from its target. What is called IC50 is the concentration at which inhibition is half-maximal. For the molecule `CC(C)[C@H]1c2nc(NC(=O)Cc3ccc(S(C)(=O)=O)cc3)sc2CN1Cc1cnc(C(F)(F)F)nc1`, the Ki in test [1] (Table 9) is under 100 nM. In addition, the IC50 in test [2] (setting [3]) is under 100 nM.
As to `CCS(=O)(=O)c1ccc(CC(=O)Nc2nc3c(s2)CN(Cc2ccc(C#N)c(C)n2)[C@H]3C(C)C)cc1` [I-A50], the Ki in test [1] (Table 8) is under 100 nM. The IC50 in test [2] (setting [4]) is under 100 nM.
Regarding `CCS(=O)(=O)c1ccc(CNC(=O)c2nc3c(s2)CN(Cc2ccc(Cl)cc2)[C@H]3C(C)C)cc1` [I-J1, (S)-5-(4-chlorobenzyl)-N-(4-(ethylsulfonyl)benzyl)-4-isopropyl-5,6-dihydro-4H-pyrrolo[3,4-d]thiazole-2-carboxamide], in test [1] (Table 8), the Ki was under 100 nM. Moreover, the IC50 in test [2] (setting [4]) is under 100 nM.
As for `CC(C)[C@H]1c2nc(C(=O)NCc3ccc(S(C)(=O)=O)cc3)sc2CN1Cc1ccc(C#N)cc1`, the Ki in test [1] (Table 9) is under 100 nM. Also, in test [2] (setting [3]), the IC50 is 100 to 1000 nM.
The matching figures for `CCOC(=O)c1cnc(N2Cc3sc(NC(=O)Cc4ccc(S(=O)(=O)CC)cc4)nc3[C@]2(C)C(C)C)nc1C(F)(F)F`: under 100 nM and over 1000 nM.
Regarding `CCS(=O)(=O)c1ccc(CC(=O)Nc2nc3c(s2)CN(Cc2ncc(C#N)cc2F)[C@H]3C(C)C)cc1` [I-A46], the Ki in test [1] (Table 8) was under 100 nM. Moreover, in test [2] (setting [4]), the IC50 was under 100 nM.
With `CCS(=O)(=O)c1ccc(CC(=O)Nc2nc3c(s2)CN(Cc2ccn(C4CC4)c(=O)c2)[C@H]3C(C)C)cc1`, the Ki in test [1] (Table 9) is under 100 nM. For the same molecule, the IC50 in test [2] (setting [3]) is 100 to 1000 nM.
The matching figures for `CCS(=O)(=O)c1ccc(CC(=O)Nc2nc3c(s2)CN(c2nccc(C4CC4)n2)[C@@H]3C(C)C)cc1`: under 100 nM and over 1000 nM.
The matching figures for `CCS(=O)(=O)c1ccc(CC(=O)Nc2nc3c(s2)CN(Cc2ccc(=O)n(C(F)F)c2)[C@H]3C(C)C)cc1`: under 100 nM and over 1000 nM.
Consider `CCS(=O)(=O)c1ccc(CC(=O)Nc2nc3c(s2)CN(Cc2ccc(F)c(F)c2)[C@H]3C(C)C)cc1`, for which, in test [1] (Table 9), the Ki is under 100 nM. Moreover, the IC50 in test [2] (setting [3]) was over 1000 nM.
The matching figures for `CCS(=O)(=O)c1ccc(CC(=O)Nc2nc3c(s2)CN(CCc2ccc(Cl)cc2)[C@H]3C(C)C)cc1`: under 100 nM and over 1000 nM.
On to `CC(C)[C@H]1c2nc(NC(=O)Cc3ccc(C#N)cc3)sc2CN1Cc1ccc(Cl)cc1` [I-E1, (S)—N-(5-(4-chlorobenzyl)-4-isopropyl-5,6-dihydro-4H-pyrrolo[3,4-d]thiazol-2-yl)-2-(4-cyanophenyl)acetamide], for which, in test [1] (Table 8), the Ki is under 100 nM. In addition, the IC50 in test [2] (setting [4]) was in the range of 100 to 1000 nM.
The matching figures for `CCS(=O)(=O)c1ccc(CC(=O)Nc2nc3c(s2)CN(Cc2ccc(C(F)(F)F)cc2)[C@H]3C(C)C)nc1` [I-C4]: under 100 nM and under 100 nM.
Turning to `CCS(=O)(=O)c1ccc(CC(=O)Nc2nc3c(s2)CN(Cc2ccc(C)nn2)[C@H]3C(C)C)cc1`, the Ki in test [1] (Table 9) was under 100 nM. Further, the IC50 in test [2] (setting [3]) was over 1000 nM.
Regarding `Cc1nc(C(F)(F)F)ccc1CN1Cc2sc(NC(=O)Cc3ccc(S(C)(=O)=O)cc3)nc2[C@@H]1C(C)C` [I-B13], in test [1] (Table 8), the Ki is under 100 nM. For the same molecule, the IC50 in test [2] (setting [4]) was under 100 nM.
In the case of `CCS(=O)(=O)c1ccc(CC(=O)Nc2nc3c(s2)CN(Cc2ccc(C#N)c(F)c2)[C@@H]3C(C)C)cc1`, the Ki in test [1] (Table 9) was in the range of 100 to 1000 nM. In addition, the half-maximal inhibitory concentration (IC50) in test [2] (setting [3]) is 100 to 1000 nM.
In the case of `Cc1nc(C(F)(F)F)ccc1CN1Cc2sc(NC(=O)Cc3ccc(S(C)(=O)=O)cc3F)nc2[C@@H]1C(C)C`, the Ki in test [1] (Table 9) is under 100 nM. Further, in test [2] (setting [3]), the IC50 was under 100 nM.
`CC[C@H](C)C1c2nc(NC(=O)Cc3ccc(S(C)(=O)=O)cc3)sc2CN1Cc1ccc(Cl)cn1` (stereo partly shown) [I-H3]: the Ki in test [1] (Table 8) is under 100 nM. The IC50 in test [2] (setting [4]) was under 100 nM.
As to `CC[C@@H]1c2nc(NC(=O)Cc3ccc(S(=O)(=O)CC)cc3)sc2CN1Cc1ccc(OC(C)C)cc1`, the Ki in test [1] (Table 9) was under 100 nM. The IC50 in test [2] (setting [3]) is over 1000 nM.
For the molecule `CCS(=O)(=O)c1ccc(CC(=O)Nc2nc3c(s2)CN(Cc2ccc(C(F)(F)F)nc2)C3C(C)C)nc1` (stereo not shown), in test [1] (Table 9), the Ki is under 100 nM. For the same molecule, the IC50 in test [2] (setting [3]) was under 100 nM.
As to `CCS(=O)(=O)c1ccc(CC(=O)Nc2nc3c(s2)CN(C[C@H]2CC[C@H](C(=O)OC)CC2)[C@H]3C(C)C)cc1` [I-A44], the Ki in test [1] (Table 8) is under 100 nM. The IC50 in test [2] (setting [4]) was under 100 nM.
Take `CCS(=O)(=O)c1ccc(CC(=O)Nc2nc3c(s2)CN(Cc2ccc(C(F)(F)F)c(OC)n2)[C@H]3C(C)C)cc1` [I-A31]: in test [1] (Table 8), the Ki was under 100 nM. Moreover, the IC50 in test [2] (setting [4]) was under 100 nM.
For `CCS(=O)(=O)c1cnc(CC(=O)Nc2nc3c(s2)CN(Cc2ccc(-c4nnn(C)n4)cc2)[C@H]3C(C)C)nc1`, the Ki in test [1] (Table 9) was under 100 nM. For the same molecule, the IC50 in test [2] (setting [3]) was 100 to 1000 nM.
For the molecule `CCS(=O)(=O)c1ccc(CC(=O)Nc2nc3c(s2)CN([C@@H](C)c2ccc(Cl)cc2F)[C@H]3C(C)C)cc1` [I-A39], the Ki in test [1] (Table 8) was under 100 nM. The IC50 in test [2] (setting [4]) was under 100 nM.
As for `CCS(=O)(=O)c1ccc(CC(=O)Nc2nc3c(s2)CN(Cc2ccc(C(F)(F)F)c(C)n2)[C@H]3C(C)C)cc1` [I-A33], in test [1] (Table 8), the Ki is under 100 nM. The IC50 in test [2] (setting [4]) is under 100 nM.
For the molecule `CC[C@H](C)C1c2nc(NC(=O)Cc3ccc(S(C)(=O)=O)cc3)sc2CN1Cc1ccc(C#N)c(F)c1` (stereo partly shown) [I-H2], the inhibitory constant (Ki) in test [1] (Table 8) is under 100 nM. In test [2] (setting [4]), the half-inhibitory concentration (IC50) was under 100 nM.
Consider `CCS(=O)(=O)c1ccc(CC(=O)Nc2nc3c(s2)CN(Cc2c(F)cc(C#N)cc2F)[C@H]3C(C)C)cc1`, for which the Ki in test [1] (Table 9) was under 100 nM. For the same molecule, in test [2] (setting [3]), the IC50 was 100 to 1000 nM.
The matching figures for `CC(C)[C@H]1c2nc(NC(=O)Cc3ccc(S(C)(=O)=O)cc3)sc2CN1Cc1ccc(-c2nnn[nH]2)cc1`: 100 to 1000 nM and over 1000 nM.
In the case of `CC[C@H]1c2nc(NC(=O)Cc3ccc(CO)cc3)sc2CN1Cc1ccc(Cl)cc1`, the Ki in test [1] (Table 9) is under 100 nM. The IC50 in test [2] (setting [3]) lay in the range of 100 to 1000 nM.
On the same counts, the results for `CC(C)[C@@H]1c2nc(NC(=O)Cc3ccc(S(C)(=O)=O)cc3)sc2CN1Cc1cccc(C#N)c1` are 100 to 1000 nM and over 1000 nM.
The matching figures for `CCc1ccc(CN2Cc3sc(NC(=O)Cc4ccc(S(C)(=O)=O)cc4)nc3[C@H]2C(C)C)cc1`: under 100 nM and over 1000 nM.
On the same counts, the results for `CCS(=O)(=O)c1ccc(CC(=O)Nc2nc3c(s2)CN(C[C@H]2CC[C@@H](C(=O)OC)CC2)[C@H]3C(C)C)cc1` (single isomer, unassigned) are under 100 nM and over 1000 nM.
As to `CCS(=O)(=O)c1ccc(CC(=O)Nc2nc3c(s2)CN(Cc2ccn(C(F)F)c(=O)c2)[C@H]3C(C)C)cc1`, in test [1] (Table 9), the Ki is under 100 nM. For the same molecule, the half-inhibitory concentration (IC50) in test [2] (setting [3]) was under 100 nM.
Consider `CCS(=O)(=O)c1ccc(CC(=O)Nc2nc3c(s2)CN([C@H](C)c2ccc(C(F)(F)F)cc2F)[C@H]3C(C)C)cc1` [I-A36], for which the Ki in test [1] (Table 8) was under 100 nM. Also, the IC50 in test [2] (setting [4]) was under 100 nM.
For the molecule `CCS(=O)(=O)c1ccc(CC(=O)Nc2nc3c(s2)CN(Cc2ccc(C(F)(F)F)nc2C)[C@H]3C(C)C)cc1` [I-A21], in test [1] (Table 8), the Ki is under 100 nM. The IC50 in test [2] (setting [4]) was under 100 nM.
As to `CCS(=O)(=O)c1ccc(CC(=O)Sc2nc3c(s2)CN(Cc2ccc(Cl)cc2)C3(C)C)cc1`, the Ki in test [1] (Table 9) is under 100 nM. In addition, in test [2] (setting [3]), the IC50 lay in the range of 100 to 1000 nM.
For the molecule `CCS(=O)(=O)c1ccc(CC(=O)Nc2nc3c(s2)CN(C[C@H]2CC[C@H](C(F)(F)F)CC2)[C@H]3C(C)C)nc1` (single isomer, unassigned), the Ki in test [1] (Table 9) is under 100 nM. In test [2] (setting [3]), the IC50 was under 100 nM.
Consider `CC(C)[C@H]1c2nc(NC(=O)Cc3ccc(S(C)(=O)=O)cc3)sc2CN1Cc1ccn(C(F)F)c(=O)c1`, for which, in test [1] (Table 9), the Ki is under 100 nM. Moreover, the IC50 in test [2] (setting [3]) is 100 to 1000 nM.
